Measured values reported in ChEMBL document CHEMBL1144331, “Uric acid may inhibit glucose-induced insulin secretion via binding to an essential arginine residue in rat pancreatic beta-cells” (2005).

Assays:
Rattus norvegicus [1] = experiment: Insulin release in rat pancreatic beta-cells after 15 minutes of administration at 1 mM was measured; format: functional
Rattus norvegicus [2] = experiment: Insulin release in rat pancreatic beta-cells after 15 minutes of administration of the Na-salt of compound at 1 mM was measured; format: functional
Rattus norvegicus [3] = organism: Rattus norvegicus; experiment: Acid dissociation constant was determined
Rattus norvegicus [4] = experiment: Insulin release in rat pancreatic beta-cells after 15 minutes of administration of the K-salt of compound at 1 mM was measured; format: functional
Rattus norvegicus [5] = experiment: Insulin release in rat pancreatic beta-cells after 15 minutes of administration of the NH4-salt of compound at 1 mM was measured; format: functional
Rattus norvegicus [6] = experiment: Insulin release in rat pancreatic beta-cells (PBS-rinsing of the islets) after 15 minutes of administration at 1 mM was measured; format: functional

| SMILES | Insulin release (Rattus norvegicus [1]) | further results |
| --- | --- | --- |
| O=C1NC(=O)C(O)(O)C(=O)N1 | 0.39 ng/islet/h |  |
| O=c1[nH]c(=O)c2nn[nH]c2[nH]1 | 7.92 ng/islet/h |  |
| NC(N)N.O=C1NC(O)Nc2[nH]c(O)nc21 (stereo not drawn) | 8.39 ng/islet/h |  |
| CN1C(=O)c2nc(O)[nH]c2NC1O.NC(N)N (stereo not drawn) | 8.75 ng/islet/h |  |
| Cn1c(O)nc2c1C(=O)NC(O)N2.NC(N)N (stereo not drawn) | 8.55 ng/islet/h |  |
| Cn1c(O)nc2[nH]c(=O)[nH]c(=O)c21 | 8.04 ng/islet/h |  |
| Cn1c(=O)[nH]c2[nH]c(=O)[nH]c2c1=O | 7.92 ng/islet/h |  |
| Cn1c(=O)c2[nH]c(=O)[nH]c2n(C)c1=O | 8.48 ng/islet/h |  |
| O=c1[nH]cnc2nc[nH]c12 [HYPOXANTHINE] | 8.44 ng/islet/h |  |
| O=C(O)c1nc(=O)[nH]c(=O)[nH]1 [OTERACIL] | 8.26 ng/islet/h |  |
| Oc1nc(O)c2nc(O)[nH]c2n1 [URIC ACID] | 1.65 ng/islet/h | Insulin release (Rattus norvegicus [2]): 1.7 ng/islet/h; pKa (Rattus norvegicus [3]): 5.4; Insulin release (Rattus norvegicus [4]): 1.68 ng/islet/h; Insulin release (Rattus norvegicus [5]): 1.66 ng/islet/h |
| O=c1[nH]c(=O)c2nc[nH]c2[nH]1 [XANTHINE] | 3.5 ng/islet/h | pKa (Rattus norvegicus [3]): 7.7; Insulin release (Rattus norvegicus [6]): 7.72 ng/islet/h |
